Reference: patent publication US20130059879A1, “Small Molecule Inhibitors of PFKFB3 and Glycolytic Flux and Their Methods of Use as Anti-Cancer Therapeutics” (UNIVERSITY OF LOUISVILLE RESEARCH FOUNDATION, INC., priority 2010, published 2013)
≈ marks a conversion by molar mass, not a printed value. Like-named read-outs stand apart in the source and are kept apart here.

What was measured:
[1] = Microsomal stability in human liver microsomes; type: in vitro ADME
Method: Microsomal stability in vitro in different biologic media (liver microsomes, S9 fraction, hepatocytes) and species is ascertained to evaluate the rate at which a compound undergoes metabolism in the experimental in vitro conditions. Results for some compounds of the invention after a 60 minutes incubation period in human liver microsomes are shown in the Table 6 below. […] Experimental conditions are briefly described here: the stability in human liver microsomes of several compounds was done over […] at 37° C. using pooled mixed gender human liver microsomes. These liver microsomes were prepared at 1.0 mg/ml of microsomal protein in a 100 mM potassium phosphate pH 7.4 buffer with 1 mM NADPH. The media was incubated at 37° C. with the compound in solution in DMSO. The concentration of the compound was followed by LC/MS-MS as a function of time. Samples were assayed at t=0, 15, 30, and 60 minutes. Testosterone was used as a positive control. The same experiment was performed with mouse, rat or dog liver microsomes instead of human liver microsomes.

[2] = Solubility in solvents and excipients, 1 hour at room temperature, HPLC; type: physicochemical; settings: thermodynamic from solid
Method: Chemical properties of the compounds of the invention were investigated, including the solubility in several solvents and pharmaceutically accepted excipients. […] Briefly, selected compounds of the invention are dissolved in a small volume of the solvents/excipients of interest at room temperature over 1 hour in typically 1 ml and the concentration is measured by HPLC after filtration.

[3] = target: T1, PFKFB3 (Homo sapiens, UniProt Q16875); experiment: Inhibition of recombinant PFKFB3 kinase activity (ADP Glow assay); type: biochemical; settings: 250 nM analog concentration; read-out: % Inhibition of PFKFB3 Enzymatic Activity
T1 construct: GST
T1 sequence (Q16875 whole entry, species assumed): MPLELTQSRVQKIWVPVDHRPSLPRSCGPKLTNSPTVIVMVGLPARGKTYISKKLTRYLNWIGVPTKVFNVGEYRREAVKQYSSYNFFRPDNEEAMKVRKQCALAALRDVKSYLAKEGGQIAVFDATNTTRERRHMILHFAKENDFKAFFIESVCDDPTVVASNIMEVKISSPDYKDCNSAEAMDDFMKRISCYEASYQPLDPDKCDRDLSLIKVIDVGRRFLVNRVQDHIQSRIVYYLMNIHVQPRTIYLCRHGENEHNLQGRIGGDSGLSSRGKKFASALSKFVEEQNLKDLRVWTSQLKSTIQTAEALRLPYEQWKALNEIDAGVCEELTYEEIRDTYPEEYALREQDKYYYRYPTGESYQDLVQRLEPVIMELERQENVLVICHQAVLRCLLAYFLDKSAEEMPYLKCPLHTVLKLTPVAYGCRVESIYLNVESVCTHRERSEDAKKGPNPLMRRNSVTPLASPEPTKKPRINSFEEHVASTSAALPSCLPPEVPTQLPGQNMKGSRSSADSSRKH
Method: PFKFB3 was prepared by expression in E. coli and purified by GST column and column chromatography. […] The recombinant protein was pure and active as determined by the results of a kinase activity assay commercially available (such as ADP Glow® assay, […]). The same assay was used to determine the inhibition of the protein and the results are shown in Table 5 below (IC50 values or percent inhibition at a fixed concentration). Results confirmed that the compounds of the invention have low nanomolar IC50 values, interacting with PFKFB3 and inhibiting its enzymatic activity.

[4] = tested on: Jurkat; experiment: Cancer cell proliferation, Alamar Blue assay, 72 hours; type: cell-based; settings: Homo sapiens, Jurkat
Method: (§1) The ability of the compounds described herein to kill or inhibit the proliferation of cancer cells was measured using either the MTT assay, or the Alamar Blue assay, or the Cell Titer Glow® assay using 48 or 72 hours exposure. […] The procedures are briefly described below. Cells of the desired tumor cell line were plated at 2×10^5 cells/ml in 96 well plates. Twice the indicated concentrations of the compounds of the invention were added to cells the following day in an equal volume of media. 72 hours later, cells were lysed and subjected to ATP determination using the CellTiter Glo-Luminescent Cell Viability Assay kit (Promega, Madison, Wis.). Experiments were done in triplicate. When using the MTT assay or the Alamar blue assay, the experimental conditions are essentially similar; at the end of the incubation period, 20 microliters of the MTT solution is added per well and the samples are incubated for an additional four hours, rinsed, and the absorbance at 570 nm measured. […] Table 2 lists the IC50 values for the compounds of the invention in several cell lines including Jurkat, Calu-6, NCI-H82, U937, HCT-116, and MDA-MB-231 cancer cell lines.

[5] = tested on: U937; experiment: as above; type: cell-based; settings: Homo sapiens, U-937
Method: as §1

[6] = tested on: Calu-6; experiment: as above; type: cell-based; settings: Homo sapiens, Calu-6
Method: as §1

[7] = tested on: NCI-H82; experiment: as above; type: cell-based; settings: Homo sapiens, NCI-H82, read-out: IC50 NCl-H82
Method: as §1

[8] = tested on: MDA-MB-231; experiment: as above; type: cell-based; settings: Homo sapiens
Method: as §1

[9] = tested on: HCT-116; experiment: as above; type: cell-based; settings: Homo sapiens, HCT-116
Method: as §1

[10] = tested on: Jurkat cells; experiment: Inhibition of 14C-2-deoxyglucose uptake; type: cell-based; settings: Homo sapiens, 3 hours
Method: Inhibition of PFKFB3 results in inhibiting glycolysis. Several feedback or feedforward activation and inhibition mechanisms exist so that, by a feedback mechanism, inhibiting the activity of PFKFB3 may inhibit glucose uptake by cells. An assay was developed to determine if there was inhibition of glucose uptake following exposure to the compounds on the invention. Briefly, Jurkat cells were plated at 1×10^5/mL in RPM′ 1640 supplemented with 10% fetal bovine serum and 50 μg/mL gentamicin sulfate. Cells were immediately treated with vehicle or 5 μmol/L of the compound of the invention for 3 hours and subsequently placed in glucose-free RPMI 1640 for 30 min. ^14C-2-deoxyglucose (0.25 μCi/mL; Perkin Elmer) was added for an additional 60 min and cells were then washed three with ice-cold RPMI 1640 containing no glucose. Cell lysates were collected in 500 μL of 0.1% SDS, and scintillation counts (counts/min) were measured on 400 μL of lysate. Counts were normalized to protein concentration.

[11] = 60 min incubation, 1.0 mg/ml microsomal protein, 1 mM NADPH, 37° C.
[12] = aqueous with cosolvent or surfactant or cyclodextrin, Cre:EtOH:Saline 5:5:90 mixture, 1 hour at room temperature, read-out: Solubility Cre:EtOH:Saline
[13] = ethanol, organic solvent or mixture, EtOH, 1 hour at room temperature, read-out: Solubility EtOH
[14] = organic solvent or mixture, 1:1 cremophor EL-P:ethanol mixture, 1 hour at room temperature, read-out: Solubility Cre:EtOH
[15] = organic solvent or mixture, Acetone, 1 hour at room temperature, read-out: Solubility Acetone
[16] = organic solvent or mixture, Cremophor, 1 hour at room temperature, read-out: Solubility Cremophor
[17] = organic solvent or mixture, DCM, 1 hour at room temperature, read-out: Solubility DCM
[18] = organic solvent or mixture, Tween 80, 1 hour at room temperature, read-out: Solubility Tween 80
[19] = organic solvent or mixture, Tween80:EtOH 6:4 mixture, 1 hour at room temperature, read-out: Solubility Twee80:EtOH

Structure (SMILES)	HLM, Mean metabolized (%) ([1]; 0 min)	HLM, Mean metabolized (%) [1, 11]	solubility at 1 h [2, 12]	solubility at 1 h [2, 13]	solubility at 1 h [2, 14]	solubility at 1 h [2, 15]	solubility at 1 h [2, 16]	solubility at 1 h [2, 17]	solubility at 1 h [2, 18]	solubility at 1 h [2, 19]	inhibition at 0.25 µM [3]	IC50 [4]	IC50 [5]	IC50 [6]	IC50 [7]	IC50 [8]	IC50 [9]	inhibition at 5 µM [10]
O=C(c1ccncc1)c1cc2c(cc(F)c3ccccc32)[nH]1 [ACT-PFK-118, (5-Fluoro-3H-benzo[e]indol-2-yl)-pyridin-4-yl-methanone]	0.0%	22.2%	100 µg/mL (≈ 0.344 mM)	200 µg/mL (≈ 0.689 mM)	1000 µg/mL (≈ 3.44 mM)	600 µg/mL (≈ 2.07 mM)	2200 µg/mL (≈ 7.58 mM)	300 µg/mL (≈ 1.03 mM)	1600 µg/mL (≈ 5.51 mM)	1300 µg/mL (≈ 4.48 mM)	0%	240 nM	95 nM	420 nM	385 nM	673 nM	1700 nM	
COc1cc(C(=O)c2cc3c(ccc4ccccc43)[nH]2)ccc1OCc1ccccc1 [ACT-PFK-109, (3H-Benzo[e]indol-2-yl)-(4-benzyloxy-3-methoxy-phenyl)-methanone]												> 100000 nM	> 100000 nM	64500 nM	> 100000 nM	> 100000 nM	> 100000 nM	42%
O=C(O)c1ccc(C(=O)c2cc3c(ccc4ccccc43)[nH]2)cc1 [ACT-PFK-111, 4-(3H-Benzo[e]indole-2-carbonyl)-benzoic acid]											54.3%	> 100000 nM	57200 nM	57500 nM	40200 nM	> 100000 nM	63500 nM	
COc1cccc(C(=O)c2cc3c(cc(F)c4ccccc43)[nH]2)c1 [ACT-PFK-116, (5-Fluoro-3H-benzo[e]indol-2-yl)-(3-methoxy-phenyl)-methanone]	0.0%	45.8%	700 µg/mL (≈ 2.19 mM)	1300 µg/mL (≈ 4.07 mM)	8600 µg/mL (≈ 26.9 mM)	6200 µg/mL (≈ 19.4 mM)	14400 µg/mL (≈ 45.1 mM)	6000 µg/mL (≈ 18.8 mM)	15500 µg/mL (≈ 48.5 mM)	10200 µg/mL (≈ 31.9 mM)	34.2%	125 nM	30 nM	80 nM	205 nM	563 nM	235 nM	0%
COc1cccc(C(=O)c2cc3c(ccc4ccccc43)[nH]2)c1 [ACT-PFK-096, (3H-Benzo[e]indol-2-yl)-(3-methoxy-phenyl)-methanone]	0.0%	99%	1700 µg/mL (≈ 5.64 mM)	2800 µg/mL (≈ 9.29 mM)	29700 µg/mL (≈ 98.6 mM)	25800 µg/mL (≈ 85.6 mM)	1200 µg/mL (≈ 3.98 mM)	8900 µg/mL (≈ 29.5 mM)	1800 µg/mL (≈ 5.97 mM)	18700 µg/mL (≈ 62.1 mM)	0%	1500 nM	14 nM	20 nM	155 nM		695 nM	29%
Cc1ccc(C(=O)c2cc3c(ccc4ccccc43)[nH]2)cc1 [ACT-PFK-123, (3H-Benzo[e]indol-2-yl)-p-tolyl-methanone]											19.4%	100 nM		79 nM	315 nM			
COc1ccccc1C(=O)c1cc2c(ccc3ccccc32)[nH]1 [ACT-PFK-098, (3H-Benzo[e]indol-2-yl)-(2-methoxy-phenyl)-methanone]			2400 µg/mL (≈ 7.96 mM)	4600 µg/mL (≈ 15.3 mM)	29000 µg/mL (≈ 96.2 mM)	9300 µg/mL (≈ 30.9 mM)	30200 µg/mL (≈ 100 mM)	10400 µg/mL (≈ 34.5 mM)	37000 µg/mL (≈ 123 mM)	32800 µg/mL (≈ 109 mM)		405 nM	40 nM	220 nM	210 nM		490 nM	25%
COc1cc(C(=O)c2cc3c(ccc4ccccc43)[nH]2)ccc1O [ACT-PFK-108, (3H-Benzo[e]indol-2-yl)-(4-hydroxy-3-methoxylthenyl)-methanone]	0.0%	73.3%	4800 µg/mL (≈ 15.1 mM)	9900 µg/mL (≈ 31.2 mM)	78100 µg/mL (≈ 246 mM)	12800 µg/mL (≈ 40.3 mM)	37600 µg/mL (≈ 118 mM)	11100 µg/mL (≈ 35 mM)	16900 µg/mL (≈ 53.3 mM)	10300 µg/mL (≈ 32.5 mM)		545 nM	205 nM	360 nM	360 nM	90 nM	475 nM	2%
O=C(c1ccc(O)cc1)c1cc2c(ccc3ccccc32)[nH]1 [ACT-PFK-100, (3H-Benzo[e]indol-2-yl)-(4-hydroxy-phenyl)-methanone]											0%							
COc1cc(C(=O)c2cc3c(cc(F)c4ccccc43)[nH]2)ccc1O [ACT-PFK-119, (5-Fluoro-3H-benzo[e]indol-2-yl)-(4-hydroxy-3-methoxy-phenyl)-methanone]	0.0%	79.2%	300 µg/mL (≈ 0.895 mM)	1000 µg/mL (≈ 2.98 mM)	6100 µg/mL (≈ 18.2 mM)	5500 µg/mL (≈ 16.4 mM)	14400 µg/mL (≈ 42.9 mM)	700 µg/mL (≈ 2.09 mM)	11400 µg/mL (≈ 34 mM)	8600 µg/mL (≈ 25.6 mM)	3.7%	110 nM	70 nM	70 nM	315 nM	620 nM	365 nM	
